{"source": "paper PMC4737481", "about": "(Bioorganic & medicinal chemistry letters, 2015)", "key": {"[1]": {"conditions": "ref not given, cited from earlier work"}, "[2]": {"system": "Chagas' disease", "conditions": "dog, oral 50 mg/kg BID for 14 days; cited from earlier work"}, "[3]": {"system": "P-glycoprotein", "conditions": "ref not given; cited from earlier work"}, "[4]": {"target": "T1, CYP3A4 (Homo sapiens, UniProt P08684)", "T1 sequence (P08684 whole entry)": "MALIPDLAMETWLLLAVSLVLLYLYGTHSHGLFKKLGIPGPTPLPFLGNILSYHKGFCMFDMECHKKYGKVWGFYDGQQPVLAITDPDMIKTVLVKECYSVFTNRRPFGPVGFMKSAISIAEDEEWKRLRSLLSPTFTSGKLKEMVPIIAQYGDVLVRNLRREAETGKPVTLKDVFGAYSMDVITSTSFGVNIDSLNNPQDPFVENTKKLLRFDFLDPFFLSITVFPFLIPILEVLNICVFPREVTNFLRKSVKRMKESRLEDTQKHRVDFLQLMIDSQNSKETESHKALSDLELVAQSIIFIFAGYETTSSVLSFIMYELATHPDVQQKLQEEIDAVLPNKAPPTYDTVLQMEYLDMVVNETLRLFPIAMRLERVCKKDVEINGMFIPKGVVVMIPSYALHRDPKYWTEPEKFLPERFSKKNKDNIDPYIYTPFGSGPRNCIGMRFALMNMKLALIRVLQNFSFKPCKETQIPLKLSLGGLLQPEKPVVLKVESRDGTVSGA", "conditions": "background statement on 1; cited from earlier work"}, "[5]": {"system": "MDCK cell monolayers", "test": "permeability in MDCK cell monolayers", "assay_type": "in vitro ADME", "conditions": "in words"}, "[6]": {"system": "T cruzi", "conditions": "T cruzi infected mice, 20 mg/kg BID (ip) for 27 days; cited from earlier work"}, "[7]": {"system": "T. cruzi parasites", "conditions": "cited from earlier work"}, "[8]": {"target": "T1, CYP3A4", "test": "inhibition of CYP3A4 in vitro", "assay_type": "in vitro ADME"}, "[9]": {"test": "stability to cultured liver microsomes", "assay_type": "in vitro ADME", "conditions": "in words"}, "[10]": {"test": "in vivo PK studies in mice", "conditions": "PO 40 mg/kg"}, "[11]": {"system": "intracellular T. cruzi in C2C12 host cells", "test": "antitrypanosomal high-content imaging assay", "assay_type": "cell-based"}}, "note": "Entries after “also recorded” stand apart in the source; their conditions may differ. Like-named read-outs stand apart in the source and are kept apart here."}
{"smiles": "CN1CCN(C(=O)N[C@@H](Cc2ccccc2)C(=O)N[C@H](/C=C/S(=O)(=O)c2ccccc2)CCc2ccccc2)CC1", "note": "[Compound 1, K777]", "values": [{"measurement": "dose-exposure pharmacokinetics", "setting": "[1]", "value": "nonlinear dose-exposure pharmacokinetics"}, {"measurement": "oral bioavailability", "setting": "[1]; species not stated", "value": "5–20%"}, {"measurement": "cardiac tissue damage", "setting": "[2]", "value": "partially protected animals from cardiac tissue damage"}, {"measurement": "parasitemia", "setting": "[2]", "value": "reduced parasitemia below levels detectable by hemocytometry"}, {"measurement": "P-glycoprotein substrate", "setting": "[3]", "value": "substrate for P-glycoprotein"}, {"measurement": "CYP3A4 inhibition (in words)", "setting": "[4]", "value": "irreversibly inhibits CYP3A4; also recorded: low μM regime"}]}
{"smiles": "CCCCC(C(=O)COc1c(F)c(F)cc(F)c1F)n1cc([C@@](C)(NCc2ccc3ncccc3c2)C(C)C)nn1", "note": "(stereo partly drawn) [Compound 4]", "values": [{"measurement": "Permeability in an MDCK cell monolayer assay", "setting": "[5]", "value": "modest-to-low"}, {"measurement": "hematological cure (treated animals)", "setting": "[6]", "value": "2/4"}, {"measurement": "activity against T. cruzi parasites in two different cell-based assays", "setting": "[7]", "value": "effective"}, {"measurement": "CYP3A4 inhibition (in words)", "setting": "[8]", "value": "low μM regime"}, {"measurement": "stability to cultured liver microsomes", "setting": "[9]", "value": "reasonable stability"}]}
{"smiles": "CCCCC(C(=O)COc1c(F)c(F)cc(F)c1F)n1cc([C@@](C)(NCc2ccc3ncccc3c2)C2CCCC2)nn1", "note": "(stereo partly drawn) [Compound 8]", "values": [{"measurement": "Exposure following PO dosing relative to compound 4", "setting": "[10]", "value": "two-fold higher"}]}
{"smiles": "CCCCC(C(=O)COc1c(F)c(F)cc(F)c1F)n1cc([C@@](C)(NCc2ccn3nccc3n2)C(C)C)nn1", "note": "(stereo partly drawn) [Compound 20]", "values": [{"measurement": "IC50", "setting": "[11]; Trypanosoma cruzi, C2C12, read-out: T. cruzi IC50", "value": 10, "unit": "nM"}]}
{"smiles": "CCCCC(C(=O)COc1c(F)c(F)cc(F)c1F)n1cc([C@@](C)(NCc2ccn3nccc3n2)C2CCCC2)nn1", "note": "(stereo partly drawn) [Compound 21]", "values": [{"measurement": "improvement of in vitro potency relative to 4", "setting": "[11]; assay not specified", "value": "~ 10 fold"}, {"measurement": "Exposure following PO dosing relative to compound 4", "setting": "[10]", "value": "two-fold higher"}]}
